The NIST ThermoML archive (doi:10.1016/j.jct.2015.12.005)
Where “and” joins values, the source holds several entries; their conditions need not be identical. Equal entries are not always repeated. ± gives the expanded uncertainty stated by the source.

Assays:
[1] = for mass density: Vibrating tube method; for vapor or sublimation pressure: Twin ebulliometer; for Triple point temperature: Adiabatic calorimetry
[2] = Molar enthalpy of transition or fusion; conditions: Adiabatic calorimetry

c1ccc2c(c1)CCC2 [indane]
[1]
Conditions	mass density [kg/m3]	molar entropy [J/K/mol]	vapor or sublimation pressure
5 K, Crystal 2, Vacuum adiabatic calorimetry	–	0.09977 ± 0.017	–
10 K, Crystal 2, Vacuum adiabatic calorimetry	–	0.873 ± 0.025	–
20 K, Crystal 2, Vacuum adiabatic calorimetry	–	5.878 ± 0.067	–
30 K, Crystal 2, Vacuum adiabatic calorimetry	–	13.6 ± 0.12	–
40 K, Crystal 2, Vacuum adiabatic calorimetry	–	22.12 ± 0.1	–
50 K, Crystal 2, Vacuum adiabatic calorimetry	–	30.71 ± 0.12	–
60 K, Crystal 2, Vacuum adiabatic calorimetry	–	39.24 ± 0.14	–
62 K, Crystal 2, Vacuum adiabatic calorimetry	–	40.96 ± 0.14	–
64 K, Crystal 2, Vacuum adiabatic calorimetry	–	42.68 ± 0.15	–
66 K, Crystal 2, Vacuum adiabatic calorimetry	–	44.42 ± 0.15	–
68 K, Crystal 2, Vacuum adiabatic calorimetry	–	46.19 ± 0.16	–
70 K, Crystal 2, Vacuum adiabatic calorimetry	–	48 ± 0.17	–
72 K, Crystal 2, Vacuum adiabatic calorimetry	–	49.85 ± 0.17	–
73.83 K, Crystal 1, Vacuum adiabatic calorimetry	–	53.65 ± 0.17	–
73.83 K, Crystal 2, Vacuum adiabatic calorimetry	–	51.59 ± 0.17	–
74 K, Crystal 1, Vacuum adiabatic calorimetry	–	53.79 ± 0.17	–
76 K, Crystal 1, Vacuum adiabatic calorimetry	–	55.33 ± 0.18	–
78 K, Crystal 1, Vacuum adiabatic calorimetry	–	56.85 ± 0.18	–
80 K, Crystal 1, Vacuum adiabatic calorimetry	–	58.36 ± 0.19	–
90 K, Crystal 1, Vacuum adiabatic calorimetry	–	65.61 ± 0.31	–
100 K, Crystal 1, Vacuum adiabatic calorimetry	–	72.48 ± 0.32	–
120 K, Crystal 1, Vacuum adiabatic calorimetry	–	85.36 ± 0.33	–
140 K, Crystal 1, Vacuum adiabatic calorimetry	–	97.4 ± 0.35	–
160 K, Crystal 1, Vacuum adiabatic calorimetry	–	108.88 ± 0.37	–
180 K, Crystal 1, Vacuum adiabatic calorimetry	–	120 ± 0.38	–
200 K, Crystal 1, Vacuum adiabatic calorimetry	–	130.94 ± 0.4	–
220 K, Crystal 1, Vacuum adiabatic calorimetry	–	141.81 ± 0.42	–
221.79 K, Crystal 1, Vacuum adiabatic calorimetry	–	142.78 ± 0.42	–
323.15 K, Liquid	937.2 ± 1.9	–	–
338.12 K, Liquid	–	–	2 ± 0.0078 kPa
344.12 K, Liquid	–	–	2.666 ± 0.0079 kPa
348.15 K, Liquid	915.6 ± 1.8	–	–
353.03 K, Liquid	–	–	4 ± 0.0079 kPa
359.69 K, Liquid	–	–	5.333 ± 0.008 kPa
369.61 K, Liquid	–	–	7.999 ± 0.0082 kPa
373.15 K, Liquid	893.7 ± 1.8	–	–
377.06 K, Liquid	–	–	10.67 ± 0.008 kPa
383.1 K, Liquid	–	–	13.33 ± 0.009 kPa
389.37 K, Liquid	–	–	16.66 ± 0.009 kPa
394.58 K, Liquid	–	–	19.93 ± 0.009 kPa
398.15 K, Liquid	871.2 ± 1.7	–	–
401.44 K, Liquid	–	–	25.02 ± 0.01 kPa and 25.02 ± 0.011 kPa
408.36 K, Liquid	–	–	31.17 ± 0.011 kPa
415.33 K, Liquid	–	–	38.56 ± 0.013 kPa
422.35 K, Liquid	–	–	47.37 ± 0.014 kPa
423.15 K, Liquid	848.5 ± 1.7	–	–
429.42 K, Liquid	–	–	57.81 ± 0.016 kPa
436.54 K, Liquid	–	–	70.11 ± 0.019 kPa
443.71 K, Liquid	–	–	84.53 ± 0.021 kPa
448.15 K, Liquid	824.8 ± 1.7	–	–
450.93 K, Liquid	–	–	101.32 ± 0.03 kPa
458.2 K, Liquid	–	–	120.78 ± 0.03 kPa
465.53 K, Liquid	–	–	143.23 ± 0.03 kPa
472.9 K, Liquid	–	–	169 ± 0.03 kPa
473.15 K, Liquid	799.8 ± 1.6	–	–
480.33 K, Liquid	–	–	198.46 ± 0.04 kPa
487.8 K, Liquid	–	–	231.99 ± 0.05 kPa
495.33 K, Liquid	–	–	269.98 ± 0.05 kPa
498.15 K, Liquid	774 ± 1.6	–	–
523.15 K, Liquid	745.8 ± 1.5	–	–

[1], Liquid
Conditions	molar entropy [J/K/mol]
221.79 K, Vacuum adiabatic calorimetry	181.35 ± 0.49
230 K, Vacuum adiabatic calorimetry	187.35 ± 0.5
240 K, Vacuum adiabatic calorimetry	194.49 ± 0.51
250 K, Vacuum adiabatic calorimetry	201.46 ± 0.52
260 K, Vacuum adiabatic calorimetry	208.28 ± 0.53
270 K, Vacuum adiabatic calorimetry	214.98 ± 0.55
280 K, Vacuum adiabatic calorimetry	221.57 ± 0.56
290 K, Vacuum adiabatic calorimetry	228.06 ± 0.57
298.15 K, Vacuum adiabatic calorimetry	233.26 ± 0.57
300 K, Vacuum adiabatic calorimetry	234.44 ± 0.58
310 K, Vacuum adiabatic calorimetry	240.74 ± 0.59
320 K, Vacuum adiabatic calorimetry	246.96 ± 0.6
330 K, Vacuum adiabatic calorimetry	253.13 ± 0.62
333.38 K, Vacuum adiabatic calorimetry	255.19 ± 0.62
340 K, Vacuum adiabatic calorimetry	259.22 ± 0.62
350 K, Vacuum adiabatic calorimetry	265.26 ± 0.63
360 K, Vacuum adiabatic calorimetry	271.24 ± 0.65
370 K, Vacuum adiabatic calorimetry	277.19 ± 0.66
380 K, Vacuum adiabatic calorimetry	283.07 ± 0.67
390 K, Vacuum adiabatic calorimetry	288.92 ± 0.67
400 K, Vacuum adiabatic calorimetry	294.73 ± 0.69
410 K, Vacuum adiabatic calorimetry	300.49 ± 0.7
420 K, Vacuum adiabatic calorimetry	306.23 ± 0.71
430 K, Vacuum adiabatic calorimetry	311.92 ± 0.72
440 K, Vacuum adiabatic calorimetry	317.58 ± 0.72
450 K, Small sample (50 mg) DSC	323.22 ± 7.5
460 K, Small sample (50 mg) DSC	328.83 ± 7.6
470 K, Small sample (50 mg) DSC	334.43 ± 7.8
480 K, Small sample (50 mg) DSC	340.01 ± 7.9
490 K, Small sample (50 mg) DSC	345.57 ± 8
500 K, Small sample (50 mg) DSC	351.1 ± 8.2
510 K, Small sample (50 mg) DSC	356.62 ± 8.3
520 K, Small sample (50 mg) DSC	362.11 ± 8.4
530 K, Small sample (50 mg) DSC	367.58 ± 8.5
540 K, Small sample (50 mg) DSC	373.04 ± 8.7
550 K, Small sample (50 mg) DSC	378.48 ± 8.8
560 K, Small sample (50 mg) DSC	383.9 ± 8.9
570 K, Small sample (50 mg) DSC	389.31 ± 9
580 K, Small sample (50 mg) DSC	394.7 ± 9.2
590 K, Small sample (50 mg) DSC	400.08 ± 9.3
600 K, Small sample (50 mg) DSC	405.43 ± 9.4

Conditions	Molar enthalpy of transition or fusion, [2] [kcal/mol]	Triple point temperature, [1] [K]
Crystal 1	2.044 ± 0.00263	221.79 ± 0.039
Crystal 2	0.0363 ± 0.00043	73.83 ± 0.04
